Laboratory results from patent publication US20240317683A1, “METHODS OF TREATING MOOD DISORDERS” (priority 2020, published 2024).
Like-named read-outs stand apart in the source and are kept apart here.

Columns and labels:
[1] = Pharmacokinetics in mice, brain; format: in vivo, C57BL/6 mice; settings: 10 mg/kg
Experimental: Animals. Male C57BL/6 mice, aged 8-12 weeks, were used in these studies. Four mice were housed in each cage. Temperature and humidity were maintained at 22±3° C. and 30-70%, respectively, and illumination was controlled to give a 12 h light and 12 h dark cycle. Temperature and humidity were recorded by an auto-controlled data logger system. All animals were provided laboratory rodent diet. Reverse osmosis water treated with ultraviolet light was provided ad libitum. Animals were randomly assigned to treatment groups.
Drugs. Compounds 4 and 5 were prepared as described above. All other compounds were commercially obtained. Test compounds were used as the hydrogen fumarate (1 and 2) or hydrochloride (3, 4, and 5) salts and were dissolved in a vehicle consisting of normal saline. They were then administered intravenously (IV) via the tail vein, subcutaneously (SC), or orally (PO) via gavage at a dose of 1 or 10 mg/kg (calculated based on the free base) and at a volume of 5 ml/kg body weight.
Sample Collection and Bioanalysis. Blood samples (approximately 60 μL) were collected under light isoflurane anesthesia (Surgivet®) from the retro orbital plexus at 0.08, 0.25, 0.5, 1, 2, 4, 8, and 24 h (4 animals per time point). Immediately after blood collection, plasma was harvested by centrifugation at 4,000 rpm for 10 min at 4° C. and samples were stored at −70±10° C. until bioanalysis. Following blood collection, animals were immediately sacrificed, the abdominal vena-cava was cut open, and the whole body was perfused from the heart using 10 mL of normal saline, and brain samples were collected from all animals. After isolation, brain samples were rinsed three times in ice-cold normal saline (for 5-10 seconds/rinse using ˜5-10 mL normal saline in disposable petri dish for each rinse) and dried on blotting paper. Brain samples were homogenized using ice-cold phosphate-buffered saline (pH 7.4). Total homogenate volume was three times the tissue weight. All homogenates were stored at −70±10° C. until bioanalysis. For bioanalysis, 25 μL aliquots of plasma/brain study samples or spiked plasma/brain calibration standards were added to individual pre-labeled micro-centrifuge tubes followed by 100 μL of an internal standard solution (glipizide, 500 ng/ml in acetonitrile) except for blanks, where 100 μL of acetonitrile was added. Samples were vortexed for 5 minutes and then centrifuged for 10 minutes at 4,000 rpm at 4° C. Following centrifugation, 100 μL of each clear supernatant was transferred to a 96 well plate and analyzed with a fit-for-purpose LC-MS/MS method, with authentic samples of each analyte used for calibration and identification.
Data Analysis. Pharmacokinetic parameters were estimated using the non-compartmental analysis tool of Phoenix® WinNonlin software (Ver 8.0).

[2] = target: serotonin transporter (SERT) (Homo sapiens (Human), UniProt P31645); assay: SERT fluorescent substrate uptake inhibition in transfected HEK293 cells; format: cell-based; settings: HEK293 cells expressing SERT
Experimental: SERT Uptake Inhibition. The ability of test compounds to block monoamine uptake by SERT was determined using the Neurotransmitter Transporter Uptake Assay Kit manufactured by Molecular Devices (Cat #R8173). Briefly, stably transfected HEK293 cells expressing SERT were grown and plated into 384-well plates at a concentration of 20,000 cells per well. Plates were then incubated for 16-20 h at 37° C. and 5% CO2. The medium was then aspirated and replaced with 25 μL of assay buffer (20 mM HEPES in HBSS, containing 0.1% BSA) containing the test compounds at the appropriate concentrations. Plates were then centrifuged at 300 rpm for 15 s and then incubated at 37° C. for 30 minutes. At this time, 25 μL of the proprietary fluorescent dye solution was added, the plates were incubated at 37°° C. for 60 minutes, and then fluorescence was quantified on a plate reader (excitation wavelength =440 nm, emission wavelength=520 nm). The proprietary dye solution contains a mixture of 1) a fluorescent dye (dye 1) that mimics the endogenous substrate of SERT and is thereby actively transported to the intracellular compartment in the absence of an inhibitor and 2) a masking dye that inhibits the fluorescence of dye 1 in the extracellular compartment. Therefore, the overall fluorescence of the system increases as the fluorescent dye is transported into the cells.

[3] = test system: monoamine oxidase A and B (MAO-A and MAO-B); assay: Stability in the presence of monoamine oxidases (human liver mitochondria); format: in vitro ADME
Experimental: Liver Mitochondria Incubations. Human liver mitochondria (Xenotech H0610.M) were used. Mitochondrial incubations were carried out in multi-well plates. […] Six time points over 60 minutes were analyzed.

[4] = Stability in rat brain homogenate; format: in vitro ADME, Sprague Dawley rats
Experimental: Rat Brain Homogenate Stability. Frozen rat brain homogenate (pooled from male Sprague Dawley rats, BioreclamationIVT, RATOOBRAINMZA) was thawed in a water bath at 37° C. immediately prior to use. Positive controls and test compounds (final concentration in incubation medium=1 μM for test compounds and 2 μM for controls, all with 2% DMSO) were incubated in duplicate for each time point (0, 10, 30, 60, and 120 min) in the rat brain homogenate at a total reaction volume of 100 μL at 37° C. At the end of each incubation period, reactions were immediately quenched with 400 μL of acetonitrile containing internal standard (200 ng/ml tolbutamine and 200 ng/ml labetalol) and mixed thoroughly. Plates were then sealed, shaken for 20 min, and centrifuged at 4,000 rpm and 4° C. for 20 min. Aliquots of 50 μL of each supernatant were diluted into 100 uL of water and the mixtures were then shaken again for 10 min.

[5] = Metabolic stability in rat liver microsomes (RLM); format: in vitro ADME; settings: both sexes, pooled rat liver microsomes, pH 7.4, NADPH
Experimental: RLM Stability. Pooled RLM from adult male and female donors (Xenotech R1000) were used. Microsomal incubations were carried out in multi-well plates. […] Control incubations were performed by replacing the NADPH-cofactor system with PBS. Test compounds (1 μM, final solvent concentration 1.0%) were incubated with microsomes at 37° C. with constant shaking. Six time points over 60 minutes were analyzed, with 60 μL aliquots of the reaction mixture being drawn at each time point.

[6] = male, C57BL/6, mouse brain, oral
[7] = human liver mitochondria, pH 7.4, human mitochondrial preparation, 1 μM

CCCN(CC)CCc1c[nH]c2ccccc12 [Compound 1, ethylpropyltryptamine] gave a half-life ([1]; male, C57BL/6, mouse brain, IV) of 104 min, a Cmax ([1]; male, C57BL/6, mouse brain, IV, read-out: Cmax (C0 back-extrapolated to t = 0)) of 15400 ng/g and a Tmax [1, 6] of 15 min. The half-life [1, 6] was 39.6 min, the Cmax ([1]; male, C57BL/6, mouse brain, oral, read-out: Cmax) was 101 ng/g and the AUC0-last ([1]; mouse brain, IV) was 4,754.52 h*ng/g. It also gave an AUC0-last ([1]; mouse brain, oral) of 68.93 ng·h/g, an F ([1]; mouse, oral, based on brain AUC0-last) of 1.4% and an IC50 [2] of 750 nM. The “SERT % Inhibition @ Max Dose” value [2] was 75.35%, the “MAO stability (in words)” value ([3]; human liver mitochondria preparation) was “highly stable” and the half-life at 1 μM [3, 7] was > 145 min. The microsomal CLint at 1 μM [3, 7] was < 15.9 µL/min/mg, the “Remaining (t = 60 min)” value ([3]; human mitochondrial preparation, 1 μM, 60 min) was 95.1% and the “stability in rat brain homogenate (in words)” value [4] was “high stability”. For the same molecule, the half-life at 1 μM ([4]; male, Sprague Dawley, rat brain homogenate, 1 μM, 37° C.) was > 289 min, the “% Compound Remaining (after 120 min)” value ([4]; rat brain homogenate, 1 μM, 37° C.) was 86.9% and the half-life at 1 μM [5] was 1.4 min. The microsomal CLint at 1 μM [5] was 970 µL/min/mg.
